Measured values reported in patent publication US20260232763A1 (Kadmon Corporation, LLC, priority 2023, published 2026).

Key:
[1] = dosage range of 200 and 400 mg; cited from earlier work
UGT1A1 = target: T1, UGT1A1 (Homo sapiens, UniProt P22309); conditions: in vitro; cited from earlier work
T1 sequence (P22309 26-533): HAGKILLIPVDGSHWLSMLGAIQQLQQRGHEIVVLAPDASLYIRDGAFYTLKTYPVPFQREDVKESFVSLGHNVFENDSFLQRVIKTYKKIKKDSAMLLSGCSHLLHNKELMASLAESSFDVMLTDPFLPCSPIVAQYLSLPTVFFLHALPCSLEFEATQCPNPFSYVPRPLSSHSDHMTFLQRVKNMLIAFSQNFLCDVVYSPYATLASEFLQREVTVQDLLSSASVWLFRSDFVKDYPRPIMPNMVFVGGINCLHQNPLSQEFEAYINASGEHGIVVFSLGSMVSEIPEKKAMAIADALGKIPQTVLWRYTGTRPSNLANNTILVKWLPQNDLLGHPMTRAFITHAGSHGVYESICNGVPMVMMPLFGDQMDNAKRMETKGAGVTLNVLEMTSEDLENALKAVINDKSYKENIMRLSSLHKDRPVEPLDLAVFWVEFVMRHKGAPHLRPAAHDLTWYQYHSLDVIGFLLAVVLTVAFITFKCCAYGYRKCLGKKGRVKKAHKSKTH

human serum albumin = human serum albumin (Homo sapiens, UniProt P02768); conditions: in vitro; cited from earlier work
OATP1B1 = target: T2, OATP1B1 (Homo sapiens, UniProt Q9Y6L6); conditions: in vitro, at clinically relevant concentrations; cited from earlier work
T2 sequence (Q9Y6L6 1-691): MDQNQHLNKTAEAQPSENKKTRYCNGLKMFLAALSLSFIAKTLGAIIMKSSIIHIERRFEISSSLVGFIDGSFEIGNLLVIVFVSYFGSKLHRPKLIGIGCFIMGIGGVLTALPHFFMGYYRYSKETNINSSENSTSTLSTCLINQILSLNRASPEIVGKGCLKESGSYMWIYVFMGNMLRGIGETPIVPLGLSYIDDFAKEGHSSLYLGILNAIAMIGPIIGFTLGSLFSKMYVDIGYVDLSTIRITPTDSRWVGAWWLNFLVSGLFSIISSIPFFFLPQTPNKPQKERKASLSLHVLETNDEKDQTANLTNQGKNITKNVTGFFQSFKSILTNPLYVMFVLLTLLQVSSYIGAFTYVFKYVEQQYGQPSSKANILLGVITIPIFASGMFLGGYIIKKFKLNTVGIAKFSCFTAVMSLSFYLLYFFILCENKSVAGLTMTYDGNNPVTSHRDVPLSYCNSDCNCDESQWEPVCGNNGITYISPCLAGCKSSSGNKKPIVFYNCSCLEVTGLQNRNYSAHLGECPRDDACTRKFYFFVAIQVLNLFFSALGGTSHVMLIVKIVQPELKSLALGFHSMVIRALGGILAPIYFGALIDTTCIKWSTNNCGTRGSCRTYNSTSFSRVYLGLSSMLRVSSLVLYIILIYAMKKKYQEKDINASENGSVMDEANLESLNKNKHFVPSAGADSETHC

CYP1A2 = target: T3, CYP1A2 (Homo sapiens, UniProt P05177); conditions: in vitro; cited from earlier work
T3 sequence (P05177 1-516): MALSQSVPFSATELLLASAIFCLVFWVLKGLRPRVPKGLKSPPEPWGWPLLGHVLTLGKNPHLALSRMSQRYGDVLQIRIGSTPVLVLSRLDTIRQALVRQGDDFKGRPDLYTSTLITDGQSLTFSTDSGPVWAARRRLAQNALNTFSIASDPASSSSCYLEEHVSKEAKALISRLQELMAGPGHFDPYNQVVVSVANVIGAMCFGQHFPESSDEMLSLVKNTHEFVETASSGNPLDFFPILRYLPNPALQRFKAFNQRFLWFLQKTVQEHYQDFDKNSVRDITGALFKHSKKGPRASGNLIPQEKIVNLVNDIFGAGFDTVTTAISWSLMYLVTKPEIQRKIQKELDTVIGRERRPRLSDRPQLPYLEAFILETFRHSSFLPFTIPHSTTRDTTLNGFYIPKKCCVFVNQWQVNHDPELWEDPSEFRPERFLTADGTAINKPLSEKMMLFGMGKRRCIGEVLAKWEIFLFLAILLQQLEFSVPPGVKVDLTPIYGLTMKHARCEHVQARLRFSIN

rats = conditions: cited from earlier work
CYP2C19 = CYP2C19 (Homo sapiens, UniProt P33261); conditions: in vitro; cited from earlier work
CYP2D6 = CYP2D6 (Homo sapiens, UniProt P10635); conditions: in vitro; cited from earlier work
dogs = conditions: cited from earlier work
rat bone marrow = rat bone marrow micronucleus; cited from earlier work
clinical = conditions: male, human, in vivo
Protocol: On Day 10, the victim and perpetrator IMPs were administered simultaneously.
On the evening before each dose, participants were provided with a light snack and were required to fast from all food and drink (except water) for a minimum of 10 hours until the following morning. All study interventions were administered in the fed state, following completion of a standard breakfast (with dosing planned to occur 30 minutes after the start of the breakfast).
The PK parameters underwent a natural logarithmic transformation and were analyzed using a mixed effect modelling technique. Adjusted geometric mean ratios and 90% confidence intervals (CIs) of the ratios were obtained for each comparison. The ratio was defined as test/reference. In addition, the intraparticipant variability were also presented. […] No formal interim analyses were performed for this study.

CYP3A4 = CYP3A4 (Homo sapiens, UniProt P08684); conditions: in vitro; cited from earlier work
CYP3A4, sequence (P08684 whole entry): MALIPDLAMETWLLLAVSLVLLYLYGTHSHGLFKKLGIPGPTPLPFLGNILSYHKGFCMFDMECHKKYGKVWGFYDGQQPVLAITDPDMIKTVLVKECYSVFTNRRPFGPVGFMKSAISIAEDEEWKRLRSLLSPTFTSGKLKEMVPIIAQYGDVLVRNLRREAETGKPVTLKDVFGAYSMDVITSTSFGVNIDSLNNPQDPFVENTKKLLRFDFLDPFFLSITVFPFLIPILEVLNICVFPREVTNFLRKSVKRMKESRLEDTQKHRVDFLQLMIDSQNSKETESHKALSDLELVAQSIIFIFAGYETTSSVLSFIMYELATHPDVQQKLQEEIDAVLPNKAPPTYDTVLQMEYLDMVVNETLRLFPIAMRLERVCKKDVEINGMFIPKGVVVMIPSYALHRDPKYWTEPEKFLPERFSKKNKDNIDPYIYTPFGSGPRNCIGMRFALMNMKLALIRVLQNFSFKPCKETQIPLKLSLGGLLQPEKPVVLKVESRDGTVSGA

CYP2C19, sequence (P33261 whole entry): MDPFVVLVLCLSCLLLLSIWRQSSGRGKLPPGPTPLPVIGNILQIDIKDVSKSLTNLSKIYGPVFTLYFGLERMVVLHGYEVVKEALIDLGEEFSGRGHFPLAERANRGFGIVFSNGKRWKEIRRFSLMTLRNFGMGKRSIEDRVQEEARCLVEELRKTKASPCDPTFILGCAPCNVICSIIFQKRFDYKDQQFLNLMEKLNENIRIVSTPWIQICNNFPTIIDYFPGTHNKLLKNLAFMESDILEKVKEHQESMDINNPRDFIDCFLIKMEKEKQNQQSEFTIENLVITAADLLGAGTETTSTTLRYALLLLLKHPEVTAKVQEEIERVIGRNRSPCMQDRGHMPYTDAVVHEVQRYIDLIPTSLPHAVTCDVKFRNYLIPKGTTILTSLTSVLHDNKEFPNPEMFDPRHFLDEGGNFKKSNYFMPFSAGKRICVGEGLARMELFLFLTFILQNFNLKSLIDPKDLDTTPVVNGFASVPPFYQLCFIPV
CYP2D6, sequence (P10635 whole entry): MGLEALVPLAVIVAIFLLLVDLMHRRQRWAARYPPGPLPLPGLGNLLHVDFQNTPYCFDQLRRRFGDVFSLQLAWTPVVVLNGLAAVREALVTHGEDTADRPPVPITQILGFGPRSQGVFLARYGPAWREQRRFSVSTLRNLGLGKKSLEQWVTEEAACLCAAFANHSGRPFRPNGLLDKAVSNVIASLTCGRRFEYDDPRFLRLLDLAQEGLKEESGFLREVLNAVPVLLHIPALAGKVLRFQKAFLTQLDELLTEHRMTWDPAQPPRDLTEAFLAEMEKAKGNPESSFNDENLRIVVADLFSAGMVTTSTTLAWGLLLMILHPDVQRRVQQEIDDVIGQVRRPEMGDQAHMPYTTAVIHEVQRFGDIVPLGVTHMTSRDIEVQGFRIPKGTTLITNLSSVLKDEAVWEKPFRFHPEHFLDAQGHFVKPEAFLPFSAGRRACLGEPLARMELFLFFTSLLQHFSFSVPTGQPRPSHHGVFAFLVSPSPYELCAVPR
human serum albumin, sequence (P02768 25-609): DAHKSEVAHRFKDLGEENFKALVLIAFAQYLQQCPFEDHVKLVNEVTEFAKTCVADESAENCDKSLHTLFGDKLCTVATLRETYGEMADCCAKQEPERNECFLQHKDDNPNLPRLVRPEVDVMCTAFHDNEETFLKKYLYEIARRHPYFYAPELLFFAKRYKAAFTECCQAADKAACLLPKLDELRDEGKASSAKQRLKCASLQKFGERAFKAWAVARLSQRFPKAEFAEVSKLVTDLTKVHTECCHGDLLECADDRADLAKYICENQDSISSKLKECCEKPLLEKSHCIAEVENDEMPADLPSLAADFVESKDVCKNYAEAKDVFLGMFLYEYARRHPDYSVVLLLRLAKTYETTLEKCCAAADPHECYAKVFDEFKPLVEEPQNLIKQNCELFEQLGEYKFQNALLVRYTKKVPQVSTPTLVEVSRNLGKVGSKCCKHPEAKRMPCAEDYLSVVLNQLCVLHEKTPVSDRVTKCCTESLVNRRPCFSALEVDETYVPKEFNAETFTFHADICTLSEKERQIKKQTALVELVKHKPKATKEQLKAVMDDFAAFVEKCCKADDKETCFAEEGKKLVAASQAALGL

SMILES: CC(C)NC(=O)COc1cccc(-c2nc(Nc3ccc4[nH]ncc4c3)c3ccccc3n2)c1 [belumosudil, 2-{3-[4-(1H-indazol-5-ylamino)-2-quinazolinyl]phenoxy}-N-(propan-2-yl) acetamide]
- Cmax and AUC increase with dose [1]: approximately proportional
- UGT1A1 inhibition (UGT1A1): inhibitor
- binding to human serum albumin (human serum albumin): 99.9%
- OATP1B1 inhibition (OATP1B1): inhibits
- CYP1A2 inhibition (CYP1A2): inhibitor
- participants reporting a TEAE (52 participants, Grade 1 (mild)): 3.8%
- number of TEAEs judged related to belumosudil (headache): 1 event
- safety and tolerability when coadministered with raltegravir, dabigatran etexilate, rosuvastatin calcium (healthy male participants, 200 mg QD): safe and well tolerated
- serious adverse events or TEAEs leading to withdrawal or death (in vivo): No serious adverse events
- dose with decreased follicular development in ovaries (rats): 275 mg/kg/day
- CYP2C19 inhibition (CYP2C19): inhibitor
- CYP2D6 inhibition (CYP2D6): inhibitor
- dose with spermatozoa degeneration (dogs): 35 mg/kg/day
- genotoxicity (rat bone marrow): not genotoxic
- Tmax (clinical): 1.5 to 3 h
- increase of exposures (Cmax and AUC) following multiple dosing (clinical): 1.30-1.49 fold
- AUC(0-last), geometric mean (clinical; 200 mg): 9200 ng·h/mL
- AUC(0-tau), geometric mean (clinical; 200 mg): 9330 ng·h/mL
- metabolism (CYP3A4): primarily metabolized by CYP3A4 and to a lesser extent by CYP2C8, CYP2D6, and UGT1A9
